In PMC7155171, “Probing the Open Global Health Chemical Diversity Library for Multistage-Active Starting Points for Next-Generation Antimalarials” (ACS Infectious Diseases, 2020):
Where two headings read alike, the source gives them in different places.

Key:
P. falciparum Dd2 = assay: SYBR green I asexual blood stage proliferation assay (96 h); format: cell-based, Plasmodium falciparum; details: Plasmodium falciparum, DD2, 11-pt dose response, 96hr
[1] = tested on: P. falciparum Dd2 (PfLuc) line expressing firefly luciferase, asexual blood stage; assay: microbe, parasite or virus in culture; format: cell-based, Plasmodium falciparum; details: Plasmodium falciparum
[2] = Sybr Green I, read-out: CDD P. falciparum Sybr Green I ABS 11-pt Reconfirmation Dose Response (96hr): IC50
[3] = Sybr Green I, read-out: CDD P. falciparum Sybr Green I ABS 11-pt Reconfirmation Dose Response (96hr): Maximum inhibition (%)
[4] = DD2, read-out: CDD P. falciparum Luciferase ABS 11-pt Reconfirmation Dose Response (48hr): IC50 (μM), 11-pt dose response, 48hr
[5] = DD2, 8-pt dose response, 96hr, read-out: CDD P. falciparum Luciferase ABS 8-pt Reconfirmation Dose Response (96hr): IC50
[6] = DD2, 8-pt dose response, 96hr, read-out: CDD P. falciparum Luciferase ABS 8-pt Reconfirmation Dose Response (96hr): Maximum inhibition (%)
[7] = DD2, 11-pt dose response, 48hr, read-out: CDD P. falciparum Luciferase ABS 11-pt Reconfirmation Dose Response (48hr): Maximum inhibition (%)
[8] = DD2, 11-pt dose response, 96hr, read-out: CDD P. falciparum Luciferase ABS 11-pt Reconfirmation Dose Response (96hr): IC50
[9] = DD2, 11-pt dose response, 96hr, read-out: CDD P. falciparum Luciferase ABS 11-pt Reconfirmation Dose Response (96hr): Maximum inhibition (%)
[10] = read-out: P. falciparum Sybr Green I ABS 11-pt Reconfirmation Dose Response (96hr): IC50
[11] = read-out: P. falciparum Sybr Green I ABS 11-pt Reconfirmation Dose Response (96hr): Maximum inhibition (%)
[12] = DD2, read-out: P. falciparum Luciferase ABS 11-pt Reconfirmation Dose Response (48hr): IC50, 11-pt dose response, 48hr
[13] = DD2, 8-pt dose response, 96hr, read-out: P. falciparum Luciferase ABS 8-pt Reconfirmation Dose Response (96hr): IC50
[14] = DD2, 8-pt dose response, 96hr, read-out: P. falciparum Luciferase ABS 8-pt Reconfirmation Dose Response (96hr): Maximum inhibition (%)
[15] = DD2, 11-pt dose response, 48hr, read-out: P. falciparum Luciferase ABS 11-pt Reconfirmation Dose Response (48hr): Maximum inhibition (%)
[16] = DD2, 11-pt dose response, 96hr, read-out: P. falciparum Luciferase ABS 11-pt Reconfirmation Dose Response (96hr): IC50
[17] = DD2, 11-pt dose response, 96hr, read-out: P. falciparum Luciferase ABS 11-pt Reconfirmation Dose Response (96hr): Maximum inhibition (%)

| Compound | IC50 (P. falciparum Dd2; [2]) [nM] | Emax (P. falciparum Dd2; [3]) [%] | IC50 [1, 4] [µM] | IC50 [1, 5] [µM] | Emax [1, 6] [%] | Emax [1, 7] [%] | IC50 [1, 8] [µM] | Emax [1, 9] [%] | IC50 (P. falciparum Dd2; [10]) [nM] | Emax (P. falciparum Dd2; [11]) [%] | IC50 [1, 12] [µM] | IC50 [1, 13] [µM] | Emax [1, 14] [%] | Emax [1, 15] [%] | IC50 [1, 16] [µM] | Emax [1, 17] [%] | IC50 ([1]; 96 h incubation, Dd2 luciferase, read-out: 96 hour Pfluc IC50) [µM] |
| --- | --- | --- | --- | --- | --- | --- | --- | --- | --- | --- | --- | --- | --- | --- | --- | --- | --- |
| CN(CCO)C[C@@H]1CN(C2CCN(c3ccccc3Cl)CC2)C[C@@H]1CO [DDD01243670] | 1340 | 86.9 | 0.887 | 0.4 | 94.9 | 96.9 | 0.653 | 99.6 | – | – | – | – | – | – | – | – | – |
| Oc1cccc2ccc(CN3CCC4(CCNCC4)C3)nc12 [DDD01243747] | 10800 | 75.2 | 0.642 | 0.76 | 92 | 97.9 | 0.231 | 101 | – | – | – | – | – | – | – | – | – |
| Cn1cc(CN2CCCC(CCc3ccccc3C(F)(F)F)C2)cn1 (centres unmarked) [DDD01243772] | – | – | – | – | – | – | – | – | 4890 | 62 | 4.26 | 1.59 | 82.8 | 66.1 | 4.34 | – | – |
| NC1CCCCN(Cc2cc(-c3ccccc3OC(F)(F)F)no2)C1 (centres unmarked) [DDD01244394] | – | – | – | – | – | – | – | – | > 4160 | 69.6 | > 4.16 | 1.45 | 88.9 | 84.8 | > 1.39 | 97.5 | – |
| CC1CCCCN1C(=O)c1coc(COc2cccc3cnccc23)n1 (centres unmarked) [DDD01245028] | 568 | 97.7 | 0.751 | 0.61 | 94 | 97 | 0.469 | 99.8 | – | – | – | – | – | – | – | – | – |
| CCN(Cc1c(F)cccc1Cl)c1cc(C2CCNCC2)nc(C)n1 [DDD01245231] | 2500 | 81.1 | 0.763 | 0.55 | 91.3 | 99.4 | 0.504 | 99.8 | – | – | – | – | – | – | – | – | – |
| CCC[C@H]1CN(S(=O)(=O)c2ccc(-c3c(C)noc3C)s2)C[C@@H]1N [DDD01245572] | 5570 | 55.3 | > 12.5 | 1 | 81.3 | 19 | 2.92 | 74.1 | – | – | – | – | – | – | – | – | – |
| Clc1ccccc1C1(c2ccnc(C3CCCC3)n2)CCNCC1 [DDD01245610] | 3550 | 76.4 | 4.17 | 0.49 | 87.3 | 92.8 | 0.755 | 98.9 | – | – | – | – | – | – | – | – | 0.76 |
| NCC1Cc2cc(-c3nccc(N4CCC(O)CC4)n3)cc(Cl)c2O1 (centres unmarked) [DDD01245918] | 4210 | 83.9 | 2.64 | 0.55 | 92 | 75.2 | 1.96 | 96.7 | – | – | – | – | – | – | – | – | – |
| CCCOc1ccc2ccccc2c1CN1CC[C@@]2(O)CCNC[C@H]2C1 [DDD01246029] | 2760 | 96.5 | 2.85 | 1 | – | 96.3 | 1.42 | 98.8 | – | – | – | – | – | – | – | – | – |
| Clc1ccccc1C1(c2ccnc(C3CC3)n2)CCNCC1 [DDD01246037] | 4410 | 78 | 7.25 | 0.61 | 89.2 | – | 1.02 | 93.1 | – | – | – | – | – | – | – | – | – |
| c1ccc(-c2nc3c(c(NCc4n[nH]c5c4CCC5)n2)CCNC3)cc1 [DDD01246472] | 2890 | 98.2 | 4.12 | 0.92 | 92.6 | 97.5 | 0.635 | 99.5 | – | – | – | – | – | – | – | – | – |
| CCN1CC(c2ccccc2)CC2(CCN(Cc3ncc[nH]3)CC2)C1 (centres unmarked) [DDD01246660] | 3390 | 89.2 | 7.46 | 0.79 | 90.9 | 59 | 3.35 | 85.5 | – | – | – | – | – | – | – | – | – |
| Cc1ccc2[nH]c(-c3cn(C4CCNCC4)nn3)nc2c1C [DDD01246711] | 4360 | 79.6 | 2.21 | 0.43 | 94.9 | 79.2 | 2.07 | 99.2 | – | – | – | – | – | – | – | – | – |
| Cc1cccc(CN2CCC(Cc3ccccc3F)CC2)n1 [DDD01246731] | – | – | – | – | – | – | – | – | 5160 | 92.8 | 2.01 | 1.12 | – | – | 0.529 | 100 | – |
| CCN1CCN(C[C@@H]2CN(c3ncc(Cl)cc3F)C[C@@H]2CO)CC1 [DDD01246828] | 1110 | 100 | 1.58 | 0.63 | 94.8 | 98.3 | 0.961 | 99.3 | – | – | – | – | – | – | – | – | – |
| CN[C@@H](C)C(=O)N(Cc1cccc(C)c1)Cc1ccccc1OC [DDD01246872] | 1070 | 62.7 | 1.7 | 0.47 | 85.5 | 61.6 | 0.75 | 89.6 | – | – | – | – | – | – | – | – | – |
| CN(Cc1ccccc1-n1cccn1)C[C@@H]1CCCN2CCCC[C@H]12 [DDD01246904] | – | – | – | – | – | – | – | – | 8420 | 72.9 | > 12.5 | 1.88 | 85.8 | 53.8 | 3.73 | 73.6 | – |
| Cc1cc(-n2cccn2)ccc1CN1CCOCC(CN(C)C)C1 (centres unmarked) [DDD01247138] | > 4160 | 60.8 | > 12.5 | 0.9 | 83 | 48 | 5.64 | 81.9 | – | – | – | – | – | – | – | – | – |
| CC(C)CN1CCCC1c1ccc(C(=O)Nc2cccnc2)s1 (centres unmarked) [DDD01247321] | 4770 | 91.6 | 4.09 | 0.77 | 91.9 | 94.3 | 2.12 | 99.9 | – | – | – | – | – | – | – | – | – |
| CCN(CC)CCN(C)c1nc(-c2ccc(Cl)cc2)nc2c1CNC2 [DDD01247796] | – | – | – | – | – | – | – | – | 4270 | 89.9 | 3.45 | 1.5 | 94.9 | 74.2 | 2.79 | 99.3 | – |
